Laboratory results: patent US8119629B2, “Carboxamide GABAA α2 modulators” (Bristol-Meyers Squibb Company, priority 2007, dated 2012)
Counter-ions that a name gives are not always drawn.

Molecular target: T1, rat GABAA α2β2γ2 Receptors (Rattus norvegicus, UniProt P23576)
T1 construct: expressed in transfected cells; pIRES Neo2 / Hygro2 / Puro2 vectors
Test: PatchXpress 7000A automated parallel patch-clamp: potentiation of GABA EC20 current in HEK293 cells
Format: cell-based
Conditions: percent increase in mean GABA EC20 current response, HEK293 cells stably expressing rat GABAA α2β2γ2, voltage-clamped at −60 mV; for Emax: read-out: GABAA α2 EP EMAX (%)
Experimental: Cell Line Generation and Transient Expression. In order to generate stable clonal lines expressing GABAA configurations containing α2β2γ2 subunits, HEK293 cells were transfected with 2 μg of the subunit, using the Invitrogen Lipofectamine PLUS protocol. The following DNA and vector were used for the stable transfection: α2 subunits in pIRES Neo2, β2 subunit in pIRES Hygro2, and a γ2 subunit in pIRES Puro2. Transfectants were selected with G418, Hygromycin B, and Puromycin antibiotics and cloned by limiting dilution. For transient expression, transfections were performed using the Amaxa transfection protocol and 2 μg DNA of the GABAA receptor subunit using Amaxa transfection protocol. Cells were used for experiments 24-72 hrs post transfection.
PatchXpress® 7000A Automated Parallel Patch-Clamp System. HEK293 cells stably expressing recombinant the rat GABAA/α2β2γ2 configuration were harvested by a single DPBS wash followed by 0.025% Trypsin-EDTA treatment for one minute at room temperature. A 6-ml cell suspension (1.7×10^5 cells/ml) was centrifuged at 500 rpm for 60 s. The cell pellet was gently agitated, suspended in 150 μl extracellular saline buffer, and transferred to a 1.5-ml tube.
After manually placing the AVIVA Biosciences SealChip 16™ in the holder of the PatchXpress®, the SealChip16™ was automatically prepared for application of the cells. Intracellular solution containing (in mM) CsCl, 135; EGTA, 11; MgCl2, 1; HEPES, 10; ATP, 5; GTP, 0.3 (pH 7.3 with CsOH, 290-300 mOsmol) was injected into the bottom of each chamber, and extracellular solution containing (in mM) NaCl, 140; KCl, 4; CaCl2, 1.8; MgCl2, 1; glucose, 10; HEPES, 10; ATP-K2, 5 (pH 7.4 with NaOH 305-310 mOsmol) was perfused into the top of the chambers through a 16-nozzle wash station. Throughout this period, the pressure controller maintained a positive pressure (+10 mmHg) from the intracellular side to keep the hole free of debris. Seal formation was achieved by a ramp increase in negative pressure from 0 to −35 mmHg at a rate of −3.5 mmHg/s every 10 s until a giga ohm seal was obtained and verified for 30 s.
Compounds were prepared from fresh DMSO stock and were transferred to a 96-well disposable glass insert compound plate for placement in the PatchXpress®. A full 10 point concentration-response curve for GABA was obtained for the GABA receptor cell line, from which an EC20 was estimated. Test compounds were assayed for their ability to potentiate the current response by an EC20 concentration of GABA. Each experiment began by two consecutive applications of GABA EC20 alone. Following formation of a giga-ohm seal, patch chambers were perfused with extracellular saline for 60 s to remove excess cells from the well. Cells were then voltage-clamped to −60 mV for the duration of the experiment. After 60 s, 30 μl (10 μl/s over 3 s) of GABA EC20 concentration, which elicited a GABA receptor-mediated inward Cl^− current generally in the order of 200-300 pA in peak amplitude, was added to each chamber. The GABA EC20 concentration was then washed out of the recording chamber after 5 s and washing with extracellular saline was continued for 60 s. After another 60 s, a second GABA EC20 concentration was applied under the same paradigm. […] Following the second GABA EC20 application, the lowest concentration of test compound in the presence of the GABA EC20 concentration was similarly applied. Ascending concentrations of the test compound were applied successively to an individual well in the presence of the GABA EC20 concentration.
Only cells meeting strict predetermined patch-clamp QC parameters, including seal resistance, membrane resistance, and holding current were included in data analysis. GABA current responses in the presence of test compound were measured and expressed as the mean of the initial control GABA EC20 current responses. The peak current amplitude was measured using DataXpress/pCLAMP9 (Axon Instruments). Linear leak subtraction was performed off-line. […]

T1 sequence (P23576 29-451): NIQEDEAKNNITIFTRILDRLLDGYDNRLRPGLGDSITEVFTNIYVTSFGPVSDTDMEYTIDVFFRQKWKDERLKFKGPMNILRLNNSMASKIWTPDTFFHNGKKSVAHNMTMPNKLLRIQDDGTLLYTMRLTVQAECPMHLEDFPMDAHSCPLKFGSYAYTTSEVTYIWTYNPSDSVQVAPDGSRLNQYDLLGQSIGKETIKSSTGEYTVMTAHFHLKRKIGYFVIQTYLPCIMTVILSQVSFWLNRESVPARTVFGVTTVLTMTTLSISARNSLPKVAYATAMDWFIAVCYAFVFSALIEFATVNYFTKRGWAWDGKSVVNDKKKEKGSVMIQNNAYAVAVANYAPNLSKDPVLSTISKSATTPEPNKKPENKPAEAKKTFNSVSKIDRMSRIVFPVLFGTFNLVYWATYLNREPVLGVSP
T1 sequence (P63138 25-474 partner limits assumed): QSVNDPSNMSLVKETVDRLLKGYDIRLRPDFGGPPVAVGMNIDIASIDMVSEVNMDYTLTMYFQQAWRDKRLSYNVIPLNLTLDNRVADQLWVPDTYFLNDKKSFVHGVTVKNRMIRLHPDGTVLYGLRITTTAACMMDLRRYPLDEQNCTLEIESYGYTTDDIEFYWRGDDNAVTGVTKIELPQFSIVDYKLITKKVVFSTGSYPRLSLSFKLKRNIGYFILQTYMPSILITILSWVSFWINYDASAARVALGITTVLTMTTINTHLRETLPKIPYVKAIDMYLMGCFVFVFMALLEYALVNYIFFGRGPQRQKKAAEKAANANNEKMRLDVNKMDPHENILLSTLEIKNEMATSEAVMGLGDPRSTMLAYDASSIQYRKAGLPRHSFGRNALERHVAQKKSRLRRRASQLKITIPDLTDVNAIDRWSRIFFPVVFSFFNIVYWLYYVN
T1 sequence (P18508 39-466 partner): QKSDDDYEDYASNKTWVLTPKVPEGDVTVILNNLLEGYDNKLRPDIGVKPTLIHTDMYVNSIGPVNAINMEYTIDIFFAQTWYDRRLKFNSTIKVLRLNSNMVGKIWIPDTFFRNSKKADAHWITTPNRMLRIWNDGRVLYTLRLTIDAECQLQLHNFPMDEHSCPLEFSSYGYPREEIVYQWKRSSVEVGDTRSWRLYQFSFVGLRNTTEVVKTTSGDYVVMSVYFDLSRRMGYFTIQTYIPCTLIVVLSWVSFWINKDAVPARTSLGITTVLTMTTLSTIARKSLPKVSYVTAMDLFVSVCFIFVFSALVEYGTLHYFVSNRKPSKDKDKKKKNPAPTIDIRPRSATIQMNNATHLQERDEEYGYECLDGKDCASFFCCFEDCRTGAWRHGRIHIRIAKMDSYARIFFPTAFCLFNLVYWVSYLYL

Compound	Emax [%]	GABAA α2 EP EMAX (%)
C#Cc1ccc2c(c1)C(c1ccccc1)=NCc1c(C(=O)N(CC)CC)ncn1-2 [Example 1, N,N-Diethyl-8-ethynyl-6-phenyl-4H-benzo[f]imidazo[1,5-a][1,4]diazepine-3-carboxamide]	400 to 500	–
C#Cc1ccc2c(c1)C(c1ccccc1)=NCc1c(C(=O)NCC)ncn1-2 [Example 2, N-Ethyl-8-ethynyl-6-phenyl-4H-benzo[f]imidazo[1,5-a][1,4]diazepine-3-carboxamide dihydrochloride]	300 to 400	–
C#Cc1ccc2c(c1)C(c1ccccc1)=NCc1c(C(N)=O)ncn1-2 [Example 3, 8-Ethynyl-6-phenyl-4H-benzo[f]imidazo[1,5-a][1,4]diazepine-3-carboxamide]	300 to 400	–
C#Cc1ccc2c(c1)C(c1ccccc1)=NCc1c(C(=O)NCCOC)ncn1-2 [Example 4, 8-Ethynyl-N-(2-methoxyethyl)-6-phenyl-4H-benzo[f]imidazo[1,5-a][1,4]diazepine-3-carboxamide Dihydrochloride]	> 500	–
C#Cc1ccc2c(c1)C(c1ccccc1)=NCc1c(C(=O)NCCO)ncn1-2 [Example 5, 8-Ethynyl-N-(2-hydroxyethyl)-6-phenyl-4H-benzo[f]imidazo[1,5-a][1,4]diazepine-3-carboxamide]	400 to 500	–
C#Cc1ccc2c(c1)C(c1ccccc1)=NCc1c(C(=O)NCCN(C)C)ncn1-2 [Example 6, N-(2-(Dimethylamino)ethyl)-8-ethynyl-6-phenyl-4H-benzo[f]imidazo[1,5-a][1,4]diazepine-3-carboxamide]	300 to 400	–
C#Cc1ccc2c(c1)C(c1ccccc1)=NCc1c(C(=O)NCC(=O)OCC)ncn1-2 [Example 7, Ethyl 2-(8-ethynyl-6-phenyl-4H-benzo[f]imidazo[1,5-a][1,4]diazepine-3-carboxamido)acetate]	300 to 400	–
C#Cc1ccc2c(c1)C(c1ccccc1)=NCc1c(C(=O)N3CCN(C)CC3)ncn1-2 [Example 8, (8-Ethynyl-6-phenyl-4H-benzo[f]imidazo[1,5-a][1,4]diazepin-3-yl)(4-methylpiperazin-1-yl)methanone]	300 to 400	–
C#Cc1ccc2c(c1)C(c1ccccc1)=NCc1c(C(=O)N3CCOCC3)ncn1-2 [Example 9]	400 to 500	–
C#Cc1ccc2c(c1)C(c1ccccc1)=NCc1c(C(=O)NC3CC3)ncn1-2 [Example 10, N-Cyclopropyl-8-ethynyl-6-phenyl-4H-benzo[f]imidazo[1,5-a][1,4]diazepine-3-carboxamide]	> 500	–
C#Cc1ccc2c(c1)C(c1ccccc1)=NCc1c(C(=O)NCCOCC)ncn1-2 [Example 12, N-(2-Ethoxyethyl)-8-ethynyl-6-phenyl-4H-benzo[f]imidazo[1,5-a][1,4]diazepine-3-carboxamide dihydrochloride]	300 to 400	–
C#Cc1ccc2c(c1)C(c1ccccc1)=NCc1c(C(=O)NC(CC)COC)ncn1-2 (centres unmarked) [Example 13, 8-Ethynyl-N-(1-methoxybutan-2-yl)-6-phenyl-4H-benzo[f]imidazo[1,5-a][1,4]diazepine-3-carboxamide]	200 to 300	–
C#Cc1ccc2c(c1)C(c1ccccc1)=NCc1c(C(=O)N[C@@H](COC)C3CC3)ncn1-2 [Example 14, N—((R)-1-Cyclopropyl-2-methoxyethyl)-8-ethynyl-6-phenyl-4H-benzo[f]imidazo[1,5-a][1,4]diazepine-3-carboxamide]	200 to 300	–
C#Cc1ccc2c(c1)C(c1ccccc1)=NCc1c(C(=O)NC(COC)COC)ncn1-2 [Example 15, N-(1,3-Dimethoxypropan-2-yl)-8-ethynyl-6-phenyl-4H-benzo[f]imidazo[1,5-a][1,4]diazepine-3-carboxamide]	200 to 300	–
C#Cc1ccc2c(c1)C(c1ccccc1)=NCc1c(C(=O)N(CCOC)CCOC)ncn1-2 [Example 16, 8-Ethynyl-N,N-bis(2-methoxyethyl)-6-phenyl-4H-benzo[f]imidazo[1,5-a][1,4]diazepine-3-carboxamide]	200 to 300	–
C#Cc1ccc2c(c1)C(c1ccccc1)=NCc1c(C(=O)NC(C)COC)ncn1-2 (centres unmarked) [Example 17, 8-Ethynyl-N-(1-methoxypropan-2-yl)-6-phenyl-4H-benzo[f]imidazo[1,5-a][1,4]diazepine-3-carboxamide]	200 to 300	–
C#Cc1ccc2c(c1)C(c1ccccc1)=NCc1c(C(=O)NCCCOC)ncn1-2 [Example 18, 8-Ethynyl-N-(3-methoxypropyl)-6-phenyl-4H-benzo[f]imidazo[1,5-a][1,4]diazepine-3-carboxamide]	400 to 500	–
C#Cc1ccc2c(c1)C(c1ccccc1)=NCc1c(C(=O)NCCOCCC)ncn1-2 [Example 19, 8-Ethynyl-6-phenyl-N-(2-propoxyethyl)-4H-benzo[f]imidazo[1,5-a][1,4]diazepine-3-carboxamide]	400 to 500	–
C#Cc1ccc2c(c1)C(c1ccccc1)=NCc1c(C(=O)NCCOC(C)C)ncn1-2 [Example 20, 8-Ethynyl-N-(2-isopropoxyethyl)-6-phenyl-4H-benzo[f]imidazo[1,5-a][1,4]diazepine-3-carboxamide]	400 to 500	–
C#Cc1ccc2c(c1)C(c1ccccc1)=NCc1c(C(=O)N3CCN(c4ncccn4)CC3)ncn1-2 [Example 21, (8-Ethynyl-6-phenyl-4H-benzo[f]imidazo[1,5-a][1,4]diazepin-3-yl)(4-(pyrimidin-2-yl)piperazin-1-yl)methanone]	200 to 300	–
C#Cc1ccc2c(c1)C(c1ccccc1)=NCc1c(C(=O)NCCOCCNC(=O)c3ncn4c3CN=C(c3ccccc3)c3cc(C#C)ccc3-4)ncn1-2 [Example 23, N,N′-(2,2′-Oxybis(ethane-2,1-diyl))bis(8-ethynyl-6-phenyl-4H-benzo[f]imidazo[1,5-a][1,4]diazepine-3-carboxamide)]	–	* (200% < Emax < 300 *)
C#Cc1ccc2c(c1)C(c1ccccc1)=NCc1c(C(=O)NCCN(C)CCNC(=O)c3ncn4c3CN=C(c3ccccc3)c3cc(C#C)ccc3-4)ncn1-2 [Example 24, N,N′-(2,2′-(Methylazanediyl)bis(ethane-2,1-diyl))bis(8-ethynyl-6-phenyl-4H-benzo[f]imidazo[1,5-a][1,4]diazepine-3-carboxamide)]	–	** (300% < Emax < 400 **)
C#Cc1ccc2c(c1)C(c1ccccc1)=NCc1c(C(=O)NCCSCCNC(=O)c3ncn4c3CN=C(c3ccccc3)c3cc(C#C)ccc3-4)ncn1-2 [Example 25, N,N′-(2,2′-Thiobis(ethane-2,1-diyl))bis(8-ethynyl-6-phenyl-4H-benzo[f]imidazo[1,5-a][1,4]diazepine-3-carboxamide)]	–	* (200% < Emax < 300 *)
C#Cc1ccc2c(c1)C(c1ccccc1)=NCc1c(C(=O)NCC(O)CC)ncn1-2 (centres unmarked) [Example 26, 8-Ethynyl-N-(2-hydroxybutyl)-6-phenyl-4H-benzo[f]imidazo[1,5-a][1,4]diazepine-3-carboxamide]	200 to 300	–
C#Cc1ccc2c(c1)C(c1ccccc1)=NCc1c(C(=O)NC[C@@H](C)O)ncn1-2 [Example 27, 8-Ethynyl-N—((R)-2-hydroxypropyl)-6-phenyl-4H-benzo[f]imidazo[1,5-a][1,4]diazepine-3-carboxamide]	200 to 300	–
C#Cc1ccc2c(c1)C(c1ccccc1)=NCc1c(C(=O)NC[C@H](C)O)ncn1-2 [Example 28, 8-Ethynyl-N—((S)-2-hydroxypropyl)-6-phenyl-4H-benzo[f]imidazo[1,5-a][1,4]diazepine-3-carboxamide]	300 to 400	–
